Reference: PubChem BioAssay AID330 (DTP/NCI, 2004)
Where “and” joins values, the source holds several entries; their conditions need not be identical. Equal values may be shown once. Inconclusive results and toxic doses are left out. The calls were made as follows: active = survival T/C of 150% or more; inactive = T/C below 125% in these data.

Tested on: P388 leukemia ip, CD2F1 mice, survival T/C
Assay: NCI In Vivo Anticancer Drug Screen. Data for tumor model P388 Leukemia (intraperitoneal) in CD2F1 (CDF1) mice
Conditions: endpoint: median survival time, higher = longer survival
Procedure, shortened: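 Mice carrying the transplanted tumor received test compound or vehicle. Survival was recorded in each group, and the value is the treated-group measurement divided by that of the vehicle-treated control group.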

[1] = dose: 100.0 mg/kg/injection, schedule: Q04DX002 (ip), vehicle: saline with Tween-80
[2] = dose: 50.0 mg/kg/injection, schedule: Q01DX005 (ip), vehicle: Klucel (hydroxypropylcellulose) (HPC)
[3] = dose: 100.0 mg/kg/injection, schedule: Q01DX005 (ip), vehicle: Klucel (hydroxypropylcellulose) (HPC)
[4] = dose: 50.0 mg/kg/injection, schedule: Q01DX009 (ip), vehicle: Klucel (hydroxypropylcellulose) (HPC)
[5] = dose: 50.0 mg/kg/injection, schedule: Q01DX009 (ip), vehicle: saline with Tween-80
[6] = dose: 100.0 mg/kg/injection, schedule: Q01DX009 (ip), vehicle: saline with Tween-80
[7] = dose: 200.0 mg/kg/injection, schedule: Q01DX009 (ip), vehicle: saline with Tween-80
[8] = dose: 100.0 mg/kg/injection, schedule: Q04DX003 (ip), vehicle: saline with Tween-80
[9] = dose: 200.0 mg/kg/injection, schedule: Q04DX003 (ip), vehicle: saline with Tween-80
[10] = dose: 400.0 mg/kg/injection, schedule: Q04DX003 (ip), vehicle: saline with Tween-80

Measured: T/C

OCC(O)C(Cl)CCl (stereo not given)
inactive: dose: 60.0 mg/kg/injection, schedule: Q01DX005 (ip), vehicle: saline 101 % of control | dose: 120.0 mg/kg/injection, schedule: Q01DX005 (ip), vehicle: saline 100 % of control | dose: 240.0 mg/kg/injection, schedule: Q01DX005 (ip), vehicle: saline 86 % of control

CC(=O)OC1=C(Br)CCc2ccccc21
inactive: dose: 3.12 mg/kg/injection, schedule: Q01DX009 (ip), vehicle: DMSO 103 % of control | dose: 6.25 mg/kg/injection, schedule: Q01DX009 (ip), vehicle: DMSO 108 % of control | dose: 12.5 mg/kg/injection, schedule: Q01DX009 (ip), vehicle: DMSO 90 % of control and 96 % of control | dose: 25.0 mg/kg/injection, schedule: Q01DX009 (ip), vehicle: DMSO 93 % of control

COc1ccc(C(=O)C2C(C(=O)c3ccccc3)C23C(=O)N(C)c2ccccc23)cc1 (stereo not given)
inactive: dose: 25.0 mg/kg/injection, schedule: Q04DX002 (ip), vehicle: saline with Tween-80 101 % of control | dose: 50.0 mg/kg/injection, schedule: Q04DX002 (ip), vehicle: saline with Tween-80 100 % of control | [1] 98 % of control

O=c1sc2ccccc2n1CN(CCO)Cn1c(=O)sc2ccccc21
inactive: [2] 91 % of control | [3] 89 % of control | dose: 200.0 mg/kg/injection, schedule: Q01DX005 (ip), vehicle: Klucel (hydroxypropylcellulose) (HPC) 90 % of control

Cc1ccc(C(=O)NNC(=O)Nc2cccc(Cl)c2C)cc1
inactive: [4] 92 % of control | dose: 100.0 mg/kg/injection, schedule: Q01DX009 (ip), vehicle: Klucel (hydroxypropylcellulose) (HPC) 89 % of control | dose: 200.0 mg/kg/injection, schedule: Q01DX009 (ip), vehicle: Klucel (hydroxypropylcellulose) (HPC) 93 % of control

CC(=O)OC1CCC2(C)C(=CCC3C2CCC2(C)C3CC3N(c4ccccc4Cl)C32C(C)=O)C1 (stereo not given)
inactive: dose: 25.0 mg/kg/injection, schedule: Q01DX001 (ip), vehicle: saline with Tween-80 93 % of control | dose: 50.0 mg/kg/injection, schedule: Q01DX001 (ip), vehicle: saline with Tween-80 95 % of control | dose: 100.0 mg/kg/injection, schedule: Q01DX001 (ip), vehicle: saline with Tween-80 99 % of control and 90 % of control | dose: 400.0 mg/kg/injection, schedule: Q01DX001 (ip), vehicle: saline with Tween-80 89 % of control

COC(=O)C1C(=O)CC2C(C(=O)OC)C(=O)CC12 (stereo not given)
inactive: [5] 99 % of control | [6] 95 % of control | [7] 98 % of control

N#CC(Br)(CBr)COc1ccc(Cl)cc1Cl (stereo not given)
inactive: dose: 12.5 mg/kg/injection, schedule: Q01DX009 (ip), vehicle: saline with Tween-80 100 % of control | dose: 25.0 mg/kg/injection, schedule: Q01DX009 (ip), vehicle: saline with Tween-80 118 % of control | [5] 108 % of control

CCCCCCCCCCCCCCCCCCCC[N+]1(CC)CCOCC1
inactive: [8] 98 % of control | [9] 99 % of control | [10] 96 % of control

Cc1cccc(NC(=O)CCc2ccc(N3C(N)=NC(N)=NC3(C)C)cc2)c1
inactive: [5] 118 % of control | dose: 50.0 mg/kg/injection, schedule: Q04DX003 (ip), vehicle: saline sonified 118 % of control | dose: 100.0 mg/kg/injection, schedule: Q04DX003 (ip), vehicle: saline sonified 113 % of control | dose: 132.0 mg/kg/injection, schedule: Q01DX009 (ip), vehicle: saline with Tween-80 118 % of control | dose: 200.0 mg/kg/injection, schedule: Q04DX003 (ip), vehicle: saline sonified 118 % of control

CCC(c1ccccc1)c1cc2c(cc1OC(C)=O)OCO2 (stereo not given)
inactive: dose: 50.0 mg/kg/injection, schedule: Q01DX005 (ip), vehicle: saline with Tween-80 104 % of control | dose: 100.0 mg/kg/injection, schedule: Q01DX005 (ip), vehicle: saline with Tween-80 107 % of control | dose: 200.0 mg/kg/injection, schedule: Q01DX005 (ip), vehicle: saline with Tween-80 102 % of control

CCC1CN1P(=O)(OCCC#N)N1CC1CC (stereo not given)
inactive: dose: 12.5 mg/kg/injection, schedule: Q01DX009 (ip), vehicle: saline 100 % of control | dose: 25.0 mg/kg/injection, schedule: Q01DX009 (ip), vehicle: saline 104 % of control | dose: 50.0 mg/kg/injection, schedule: Q01DX009 (ip), vehicle: saline 109 % of control | [8] 104 % of control | [9] 100 % of control | [10] 104 % of control

COC1=C(OC)C(=O)C(Sc2ccccc2)=C(CO)C1=O
inactive: dose: 1.56 mg/kg/injection, schedule: Q01DX005 (ip), vehicle: saline with Tween-80 92 % of control | dose: 3.12 mg/kg/injection, schedule: Q01DX005 (ip), vehicle: saline with Tween-80 87 % of control | dose: 12.5 mg/kg/injection, schedule: Q01DX005 (ip), vehicle: saline with Tween-80 99 % of control

O=C1OC2(CC1n1cnc3ccccc3c1=O)C(=O)Nc1ccccc12 (stereo not given)
inactive: dose: 8.75 mg/kg/injection, schedule: Q01DX005 (ip), vehicle: Klucel (hydroxypropylcellulose) (HPC) 111 % of control | dose: 17.5 mg/kg/injection, schedule: Q01DX005 (ip), vehicle: Klucel (hydroxypropylcellulose) (HPC) 90 % of control | dose: 35.0 mg/kg/injection, schedule: Q01DX005 (ip), vehicle: Klucel (hydroxypropylcellulose) (HPC) 91 % of control

CCCCCCCCCCCCCCCCSC1=CC(=O)C(OC)=C(OC)C1=O
inactive: dose: 2.0 mg/kg/injection, schedule: Q01DX009 (ip), vehicle: Klucel (hydroxypropylcellulose) (HPC) 97 % of control | dose: 8.0 mg/kg/injection, schedule: Q01DX009 (ip), vehicle: Klucel (hydroxypropylcellulose) (HPC) 98 % of control | dose: 16.0 mg/kg/injection, schedule: Q01DX009 (ip), vehicle: Klucel (hydroxypropylcellulose) (HPC) 100 % of control | dose: 32.0 mg/kg/injection, schedule: Q01DX009 (ip), vehicle: Klucel (hydroxypropylcellulose) (HPC) 105 % of control

CC1CN1P(=S)(N1CCCCC1)N1CC1C (stereo not given)
inactive: dose: 25.0 mg/kg/injection, schedule: Q01DX009 (ip), vehicle: suspension in saline 100 % of control | dose: 50.0 mg/kg/injection, schedule: Q01DX009 (ip), vehicle: suspension in saline 96 % of control | dose: 100.0 mg/kg/injection, schedule: Q01DX009 (ip), vehicle: suspension in saline 102 % of control | dose: 200.0 mg/kg/injection, schedule: Q01DX009 (ip), vehicle: suspension in saline 105 % of control

CCOS(=O)c1ccc(C)cc1 (stereo not given)
inactive: dose: 12.5 mg/kg/injection, schedule: Q01DX009 (ip), vehicle: Klucel (hydroxypropylcellulose) (HPC) 98 % of control | dose: 25.0 mg/kg/injection, schedule: Q01DX009 (ip), vehicle: Klucel (hydroxypropylcellulose) (HPC) 98 % of control | [4] 105 % of control and 110 % of control

Nc1ncnc(N)c1NC(=O)c1ccccc1
inactive: dose: 60.0 mg/kg/injection, schedule: Q01DX005 (ip), vehicle: suspension in saline 98 % of control | dose: 120.0 mg/kg/injection, schedule: Q01DX005 (ip), vehicle: suspension in saline 106 % of control

CCOC(=O)Nc1nc2ccccc2n1CN1CCN(c2ccccc2)CC1
inactive: dose: 25.0 mg/kg/injection, schedule: Q01DX005 (ip), vehicle: Klucel (hydroxypropylcellulose) (HPC) 92 % of control | [2] 95 % of control | [3] 100 % of control

O=C(CN1CCCCC1)c1c(-c2ccccc2)[nH]c2ccccc12
inactive: dose: 100.0 mg/kg/injection, schedule: Q04DX003 (ip), vehicle: saline 108 % of control | dose: 200.0 mg/kg/injection, schedule: Q04DX003 (ip), vehicle: saline 99 % of control | dose: 400.0 mg/kg/injection, schedule: Q04DX003 (ip), vehicle: saline 93 % of control

CS(=O)(=O)OCC1OC(n2ncc(=O)[nH]c2=O)C(O)C1O (stereo not given)
inactive: [5] 100 % of control | [6] 95 % of control | [7] 101 % of control

COC(=O)C1=C2Nc3ccccc3C23CCN2C4OC56C7CC4(CN5c4c(OC)cccc4C64CCN5CCC6OCCC6(C7)C54)C4OCCC4(C1)C23 (stereo not given)
inactive: [1] 101 % of control | dose: 200.0 mg/kg/injection, schedule: Q04DX002 (ip), vehicle: saline with Tween-80 101 % of control | dose: 400.0 mg/kg/injection, schedule: Q04DX002 (ip), vehicle: saline with Tween-80 101 % of control

CCCCCCC(=O)/C=C/c1ccc(OC(=O)c2ccc(C#N)cc2)cc1
inactive: [5] 100 % of control | [6] 101 % of control | [7] 95 % of control

Cc1nc2nc[nH]n2c1N=Nc1ccccc1
inactive: dose: 60.0 mg/kg/injection, schedule: Q01DX005 (ip), vehicle: Klucel (hydroxypropylcellulose) (HPC) 98 % of control | dose: 120.0 mg/kg/injection, schedule: Q01DX005 (ip), vehicle: Klucel (hydroxypropylcellulose) (HPC) 95 % of control | dose: 240.0 mg/kg/injection, schedule: Q01DX005 (ip), vehicle: Klucel (hydroxypropylcellulose) (HPC) 107 % of control
